Experimental data published in ChEMBL document CHEMBL4325908, “Ligand-based design, synthesis and biological evaluation of xanthine derivatives as LSD1/KDM1A inhibitors” (Eur J Med Chem, 2019).

Experiments:
[1] = molecular target: Lysine-specific histone demethylase 1A (Homo sapiens, UniProt O60341); assay: Inhibition of full length recombinant LSD1 (unknown origin) expressed in Escherichia coli BL21(DE3) using H3K4me2 as substrate after 30 mins in presence of FAD by amplex red reagent based fluorescence assay
MAO-A [2] = molecular target: T1, MAO-A (Homo sapiens, UniProt P21397); assay: Inhibition of full length recombinant FLAG-tagged human MAO-A expressed in baculovirus infected sf9 cells at 1 uM preincubated for 15 mins followed by luciferin derived substrate addition measured after 60 mins by luciferase reporter gene assay relative to control; conditions: probe luciferin derived substrate
T1 sequence (P21397 whole entry): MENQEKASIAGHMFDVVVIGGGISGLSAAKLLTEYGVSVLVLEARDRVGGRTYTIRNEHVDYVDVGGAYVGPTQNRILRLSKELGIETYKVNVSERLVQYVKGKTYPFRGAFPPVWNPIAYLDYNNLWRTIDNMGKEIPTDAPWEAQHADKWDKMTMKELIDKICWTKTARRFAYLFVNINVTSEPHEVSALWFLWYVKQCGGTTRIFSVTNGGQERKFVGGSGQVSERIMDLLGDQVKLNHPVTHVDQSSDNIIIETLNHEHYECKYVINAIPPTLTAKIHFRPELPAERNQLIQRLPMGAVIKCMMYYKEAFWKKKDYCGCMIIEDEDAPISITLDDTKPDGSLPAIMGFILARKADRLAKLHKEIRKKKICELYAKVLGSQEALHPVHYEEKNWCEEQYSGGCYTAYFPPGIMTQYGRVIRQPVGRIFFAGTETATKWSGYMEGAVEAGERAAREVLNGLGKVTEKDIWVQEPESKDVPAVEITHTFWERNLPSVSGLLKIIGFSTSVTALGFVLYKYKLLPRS

MAO-B [3] = molecular target: T2, MAO-B (Homo sapiens, UniProt P27338); assay: Inhibition of full length recombinant FLAG-tagged human MAO-B expressed in baculovirus infected sf9 cells at 1 uM preincubated for 15 mins followed by luciferin derived substrate addition measured after 60 mins by luciferase reporter gene assay relative to control; conditions: probe luciferin derived substrate
T2 sequence (P27338 whole entry): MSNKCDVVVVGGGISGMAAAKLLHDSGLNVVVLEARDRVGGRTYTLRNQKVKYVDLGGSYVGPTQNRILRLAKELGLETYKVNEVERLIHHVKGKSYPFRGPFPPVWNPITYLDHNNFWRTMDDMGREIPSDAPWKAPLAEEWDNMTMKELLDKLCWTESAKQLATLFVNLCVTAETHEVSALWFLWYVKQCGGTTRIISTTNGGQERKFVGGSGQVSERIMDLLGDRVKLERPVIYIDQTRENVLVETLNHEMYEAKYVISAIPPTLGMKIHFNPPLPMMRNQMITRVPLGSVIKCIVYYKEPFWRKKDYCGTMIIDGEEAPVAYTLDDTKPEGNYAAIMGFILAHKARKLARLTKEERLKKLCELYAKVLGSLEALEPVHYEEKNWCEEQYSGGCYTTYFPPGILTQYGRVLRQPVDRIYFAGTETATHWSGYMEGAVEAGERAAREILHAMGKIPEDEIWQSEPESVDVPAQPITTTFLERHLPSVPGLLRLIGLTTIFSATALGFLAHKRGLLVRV

MAO-A [4] = molecular target: T1, MAO-A; assay: Inhibition of full length recombinant FLAG-tagged human MAO-A expressed in baculovirus infected sf9 cells at 0.1 uM preincubated for 15 mins followed by luciferin derived substrate addition measured after 60 mins by luciferase reporter gene assay relative to control; conditions: probe luciferin derived substrate
MAO-B [5] = molecular target: T2, MAO-B; assay: Inhibition of full length recombinant FLAG-tagged human MAO-B expressed in baculovirus infected sf9 cells at 0.1 uM preincubated for 15 mins followed by luciferin derived substrate addition measured after 60 mins by luciferase reporter gene assay relative to control; conditions: probe luciferin derived substrate
MGC-803 [6] = assay: Antiproliferative activity against human MGC803 cells after 72 hrs by MTT assay; conditions: MGC-803, 72 h
MGC-803 [7] = assay: Antiproliferative activity against LSD1 knock down human MGC803 cells after 72 hrs by MTT assay; assay type: functional, cell-based; conditions: MGC-803, 72 h
MGC-803 [8] = assay: Ratio of IC50 for LSD1 knock down human MGC803 cells to IC50 for human MGC803 cells; assay type: functional
[9] = molecular target: Bromodomain-containing protein 4 (Homo sapiens) (UniProt O60885); assay: Inhibition of BRD4 (unknown origin) at 25 uM relative to control
[10] = molecular target: Indoleamine 2,3-dioxygenase 1 (Homo sapiens, UniProt P14902); assay: Inhibition of IDO1 (unknown origin)
Sequence of Indoleamine 2,3-dioxygenase 1 (P14902 whole entry): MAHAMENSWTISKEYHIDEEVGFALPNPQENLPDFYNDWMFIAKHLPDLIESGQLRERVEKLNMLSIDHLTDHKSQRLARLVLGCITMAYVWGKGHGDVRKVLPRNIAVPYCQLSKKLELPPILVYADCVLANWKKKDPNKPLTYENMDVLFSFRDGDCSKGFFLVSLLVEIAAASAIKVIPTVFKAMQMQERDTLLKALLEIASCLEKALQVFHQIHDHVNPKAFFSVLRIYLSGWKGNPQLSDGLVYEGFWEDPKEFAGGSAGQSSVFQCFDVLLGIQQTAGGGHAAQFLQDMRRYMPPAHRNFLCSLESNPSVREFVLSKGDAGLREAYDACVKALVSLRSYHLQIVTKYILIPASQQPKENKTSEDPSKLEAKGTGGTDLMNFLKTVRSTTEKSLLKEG

Compound	IC50 [1] [µM]	inhibition at 1 h, 1 µM (MAO-A [2]) [%]	inhibition at 1 h, 1 µM (MAO-B [3]) [%]	inhibition at 1 h, 0.1 µM (MAO-A [4]) [%]	inhibition at 1 h, 0.1 µM (MAO-B [5]) [%]	IC50 (MGC-803 [6]) [µM]	IC50 (MGC-803 [7]) [µM]	Ratio IC50 (MGC-803 [8])	inhibition [9] [%]	IC50 [10] [µM]
CCCn1c(SCc2cccc(C)c2)nc2c1c(=O)[nH]c(=O)n2C	8.89	20	61	9	16	2.46	4.97	2 - 3	52	96.9
CCCn1c(SCc2ccc(F)cc2)nc2c1c(=O)[nH]c(=O)n2C	14.2	–	–	–	–	0.687	2.02	2 - 3	49	96.9
CCCn1c(S)nc2c1c(=O)[nH]c(=O)n2C	6.45	–	–	–	–	–	–	–	–	–
CCCn1c(SCc2ccc(Cl)cc2)nc2c1c(=O)[nH]c(=O)n2C	25.7	–	–	–	–	–	–	–	–	–
